For one molecule, IC50 results are on record in publication PMC6631010, “Development of a Simple Assay Method for Adenosine Deaminase via Enzymatic Formation of an Inosine-Tb^3+ Complex” (Sensors (Basel, Switzerland), 2019).

The assay concerns the target T1, Adenosine deaminase (ADA) (Bos taurus, UniProt P56658).
T1 sequence (P56658 2-363): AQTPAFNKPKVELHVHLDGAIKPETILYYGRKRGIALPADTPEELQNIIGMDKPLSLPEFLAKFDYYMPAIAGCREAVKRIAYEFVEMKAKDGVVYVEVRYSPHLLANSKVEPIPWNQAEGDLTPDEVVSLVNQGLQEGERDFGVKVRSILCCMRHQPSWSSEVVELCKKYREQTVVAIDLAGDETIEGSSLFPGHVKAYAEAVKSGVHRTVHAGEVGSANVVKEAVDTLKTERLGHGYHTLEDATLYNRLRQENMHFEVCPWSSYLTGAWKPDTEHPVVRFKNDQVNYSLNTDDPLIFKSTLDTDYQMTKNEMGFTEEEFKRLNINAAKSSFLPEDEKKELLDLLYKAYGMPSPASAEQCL
As to the kind of experiment: biochemical.

Regarding `CCCCCC[C@@H]([C@@H](C)O)n1cnc2c(N)ncnc21` (racemic) [EHNA, erythro-9-(2-hydroxy-3-nonyl)adenine], the IC50 (as a rule, the midpoint of a concentration-inhibition curve) is 64 nM.
